In article PMC5198778 (MedChemComm, 2016):

Assays:
PRMT8 = PRMT8 (Homo sapiens, UniProt Q9NR22); experiment: PRMT8 biochemical inhibition assay
other PRMTs = experiment: Activity against other PRMTs; format: biochemical; conditions: PRMTs other than CARM1, PRMT6 and PRMT8
CARM1 = target: T1, CARM1 (Homo sapiens, UniProt Q86X55); experiment: Mechanism of action; format: biochemical; conditions: IC50 against CARM1 with increasing peptide substrate or SAM concentrations
T1 sequence (Q86X55 1-608): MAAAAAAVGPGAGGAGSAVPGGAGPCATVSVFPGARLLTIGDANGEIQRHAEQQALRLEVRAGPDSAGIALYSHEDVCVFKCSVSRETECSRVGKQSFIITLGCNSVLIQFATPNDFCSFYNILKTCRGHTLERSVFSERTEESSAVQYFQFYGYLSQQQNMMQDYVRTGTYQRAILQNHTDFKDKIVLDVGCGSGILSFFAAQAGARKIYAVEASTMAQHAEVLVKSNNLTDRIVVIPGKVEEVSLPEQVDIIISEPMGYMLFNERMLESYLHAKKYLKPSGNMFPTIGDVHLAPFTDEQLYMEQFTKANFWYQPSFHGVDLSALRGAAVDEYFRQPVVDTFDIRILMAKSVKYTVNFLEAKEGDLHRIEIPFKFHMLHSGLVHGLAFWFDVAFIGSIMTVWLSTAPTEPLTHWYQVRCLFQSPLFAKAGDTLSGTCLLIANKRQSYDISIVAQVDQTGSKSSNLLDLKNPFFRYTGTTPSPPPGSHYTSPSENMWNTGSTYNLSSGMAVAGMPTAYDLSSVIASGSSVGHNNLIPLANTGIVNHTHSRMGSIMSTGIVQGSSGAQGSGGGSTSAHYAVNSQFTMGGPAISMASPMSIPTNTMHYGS

all type I PRMTs = conditions: cited from earlier work
[1] = test system: type II and type III PRMTs as well as other methyltransferases; conditions: cited from earlier work

Chain of PRMT8 (Q9NR22 whole entry, species assumed): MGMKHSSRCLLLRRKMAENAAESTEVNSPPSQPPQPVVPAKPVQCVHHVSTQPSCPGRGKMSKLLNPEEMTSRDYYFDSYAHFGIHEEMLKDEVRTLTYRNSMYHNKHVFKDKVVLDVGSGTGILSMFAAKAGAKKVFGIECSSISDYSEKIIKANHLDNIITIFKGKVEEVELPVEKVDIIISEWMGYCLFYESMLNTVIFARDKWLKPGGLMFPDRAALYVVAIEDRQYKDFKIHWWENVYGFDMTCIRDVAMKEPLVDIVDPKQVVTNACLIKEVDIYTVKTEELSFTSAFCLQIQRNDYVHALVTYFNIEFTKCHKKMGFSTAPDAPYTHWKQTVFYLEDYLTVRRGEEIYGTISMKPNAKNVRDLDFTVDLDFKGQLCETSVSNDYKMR

CNCCN1CC(OCc2cccc(OC(F)(F)F)c2)C1 [Compound 6]
IC50 (PRMT8): 1200 nM | activity against other PRMTs (other PRMTs): inactive

CNCCN1CCC(NCc2cccc(Br)c2)CC1 [Compound 9]
mechanism of action versus cofactor SAM and peptide substrate (CARM1): noncompetitive

CC(C)Oc1ccc(-c2c[nH]cc2CN(C)CCN)cc1 [MS023]
activity against all type I PRMTs (all type I PRMTs): potent | activity against type II and type III PRMTs and other methyltransferases [1]: inactive
